Data published in ChEMBL document CHEMBL3301361, “Experimental in vitro DMPK and physicochemical data on a set of publicly disclosed compounds”.
Values after ≈ are worked out from the molar mass of the structure shown.

How the values were obtained:
[1] = physchem; conditions: octan-1-ol/water
[2] = in vitro; conditions: human, plasma
[3] = in vitro; conditions: SD, HW or BN, rat, plasma
[4] = in vitro; conditions: Beagle, dog, plasma
[5] = physchem; conditions: pH 7.4 buffer

SMILES | logD ([1]; pH 7.4, LogD7.4) | fraction unbound at 5 h ([2]; PPB) | fraction unbound at 5 h [3] | fraction unbound at 5 h [4] | solubility thermodynamic [5] [µM] | logD ([1]; pH 7.4) | fraction unbound at 5 h [2]
N[C@H]1CCN(c2c(Cl)cccc2/C=C2\SC(=O)NC2=O)C1 | 1.89 | 0.0234 | 0.0467 | 0.0581 | – | – | –
Cc1cc(Nc2cnc(C#N)c(N[C@@H](C)c3ncc(F)cn3)n2)n[nH]1 | 1.96 | 0.186 | 0.376 | 0.398 | – | – | –
Cc1cc(Nc2cnc(C#N)c(N[C@@H](C)c3ccc(F)cn3)n2)n[nH]1 | 2.51 | 0.145 | 0.16 | 0.204 | – | – | –
Cc1cc(Nc2nc(N[C@@H](C)c3ncc(F)cn3)c(C#N)nc2C)n[nH]1 | 1.92 | 0.304 | 0.349 | 0.454 | – | – | –
CC(C)Oc1cc(Nc2nc3c(cc2F)ncn3[C@@H](CO)c2ccc(F)cn2)n[nH]1 | 2.97 | 0.051 | 0.119 | 0.249 | – | – | –
CC[C@@H](Nc1c(Nc2cccc(C(=O)N(C)C)c2O)c(=O)c1=O)c1ccc(C)o1 [NAVARIXIN ANHYDROUS] | 2.32 | 0.0179 | 0.0106 | 0.089 | – | – | –
COC[C@H](O)Cn1c(=O)cnn(-c2ccc(Cl)c(C(=O)NCC3(O)CCCCCC3)c2)c1=O [CE-224535] | 1.46 | 0.415 | 0.477 | 0.552 | – | – | –
Cc1cn([C@H]2CCCN([C@@H](C)c3ccc(C(=O)O)c(Oc4cccc(Cl)c4)c3)C2)c(=O)[nH]c1=O | -0.26 | 0.0229 | 0.0268 | 0.0532 | – | – | –
O=c1cc(N2CCOCC2)nc2n(Cc3cccc4ccccc34)ccn12 | 3.3 | 0.0307 | 0.0477 | 0.0676 | – | – | –
CC(C)Oc1cc(-n2cnc3ccc(N[C@@H](CO)c4ccc(F)cn4)nc32)n[nH]1 | 2.79 | 0.0818 | 0.186 | 0.304 | – | – | –
CO[C@H]1CN(CCn2c(=O)ccc3ccc(C#N)cc32)CC[C@H]1NCc1cc2c(cn1)OCCO2 | 0.63 | 0.483 | 0.738 | 0.569 | – | – | –
O=C(O)[C@H](Cc1ccc(F)cc1)N1CCC(CN2CCC(Oc3ccc(Cl)c(Cl)c3)CC2)CC1 | 2.98 | 0.114 | 0.22 | 0.224 | 72.4 (≈ 36.9 µg/mL) | – | –
N#CC[C@H](C1CCCC1)n1cc(-c2ncnc3[nH]ccc23)cn1 [RUXOLITINIB] | 2.55 | 0.0532 | 0.173 | 0.166 | – | – | –
O=c1[nH]c2ccccc2n1CCCN1CCC(n2c(=O)[nH]c3cc(Cl)ccc32)CC1 [DOMPERIDONE] | – | – | 0.069 | 0.0872 | – | 3.45 | 0.0335
CCOc1cc2ncc(C(N)=O)c(Nc3cccc(Cl)c3F)c2cc1N1CCN(C)CC1 | – | 0.0705 | 0.134 | 0.204 | – | – | –
Cc1cc(C(C)Nc2ccccc2)c2nc(N3CCOCC3)cc(=O)n2c1 (stereo not drawn) | – | 0.0532 | 0.0467 | 0.0606 | – | – | –
O=C(O)CCn1c2c(c3ccccc31)C[C@H](NS(=O)(=O)c1ccc(F)cc1)CC2 [RAMATROBAN] | – | 0.0274 | 0.0328 | 0.0437 | – | – | –
CCOc1noc2cc(OCCC3CCN(c4ccc(C)nn4)CC3)ccc12 | – | 0.0014 | 0.0015 | 0.0031 | – | – | –
Cc1cc(Nc2nc(O[C@@H](C)c3ncc(F)cn3)ncc2Cl)[nH]n1 | 1.82 | 0.249 | 0.339 | 0.489 | – | – | –
